Laboratory results: patent US20260167632A1, “NICOTINAMIDE DERIVATIVES FOR USE IN TREATING DISORDERS ASSOCIATED WITH KCNK13 ACTIVITY” (Cerevance, Inc., priority 2022, published 2026)

How the values were obtained:
[1] = tested on: Mouse primary microglia IL-1β; test: Inflammasome assay in primary mouse postnatal microglia using LPS/0 mM extracellular K+ (IL-1β release); assay type: cell-based; details: 100 ng/mL LPS 3.5 h, compound 30 min, K+ free buffer 2 h, IL-1β levels by MesoScale
Method: 3. Inflammasome Assay in Primary Mouse Postnatal Microglia Using LPS/0 mM Extracellular K^+
Newly shaken mouse microglia cells were added to a 96-well plate and left to adhere overnight. After this time, 100 ng/mL LPS was added to each well and incubated at 37° C. for 3.5 hours, at which point compound addition was undertaken and plates incubated at 37° C. for an additional 30 minutes. After this time, the medium in each well was removed and replaced with K^+ free buffer and the plates then incubated for an additional 2 hours at 37° C. Measurement of IL-1β levels in the sample wells was undertaken using MesoScale Discovery™ MESO QuickPlex SQ 120 and IL-1β antibodies from mouse IL-1β DuoSet ELISA kit (R&D System, DY401).

human KCNK13 = biological target: T1, human KCNK13 (Homo sapiens, UniProt Q9HB14); test: KCNK13 antagonist activity, thallium flux FLIPR assay in HEK 293 cells stably expressing human KCNK13; assay type: cell-based; details: HEK 293 cells stably expressing human KCNK13, Tl+ sensitive dye, compound 15 min before thallium sulfate, ten point curves; read-out: hKCNK13 IC50
T1 construct: expressed in transfected cells
T1 sequence (Q9HB14 1-408): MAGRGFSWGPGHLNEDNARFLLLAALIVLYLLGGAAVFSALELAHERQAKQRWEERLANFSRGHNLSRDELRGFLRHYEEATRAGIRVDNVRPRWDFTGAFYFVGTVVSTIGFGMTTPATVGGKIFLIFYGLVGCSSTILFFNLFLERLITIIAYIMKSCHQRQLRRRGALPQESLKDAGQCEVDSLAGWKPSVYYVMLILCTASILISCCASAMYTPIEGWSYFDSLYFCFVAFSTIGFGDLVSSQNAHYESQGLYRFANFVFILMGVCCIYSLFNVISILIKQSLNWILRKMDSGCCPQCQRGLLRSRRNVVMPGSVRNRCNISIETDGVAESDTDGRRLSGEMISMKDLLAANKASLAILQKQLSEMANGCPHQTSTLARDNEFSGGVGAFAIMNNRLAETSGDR
Summary of the method: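 HEK 293 cells stably expressing human KCNK13, loaded with Tl+-sensitive dye 1 h at room temperature, then exposed to compound for 15 min before thallium sulfate stimulus. Tl+ influx read by FLIPR fluorescence; IC50 from ten-point half-log curves starting at 100 µM, each point averaging two wells.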

Compound	IC50 [1]	IC50 (human KCNK13)
COc1ncc(F)cc1C(=O)N(C)C1CCc2ccccc21 (single isomer, unassigned) [Example 16, N-(2,3-dihydro-1H-inden-1-yl)-5-fluoro-2-methoxy-N-methylnicotinamide]	≤ 600 nM	≤ 500 nM
COc1ncc(Cl)cc1S(=O)(=O)N1CCOc2ccc(F)cc2C1 [Example 54, 4-((5-chloro-2-methoxypyridin-3-yl)sulfonyl)-7-fluoro-2,3,4,5-tetrahydrobenzo[f][1,4]oxazepine]		≤ 500 nM
CN(Cc1cc(F)cc(F)c1)S(=O)(=O)c1cc(F)cnc1OC(F)F [Example 103, N-(3,5-difluorobenzyl)-2-(difluoromethoxy)-5-fluoro-N-methylpyridine-3-sulfonamide]		≤ 200 nM

Further lines, results first:

IC50 [1]	IC50 (human KCNK13)	Compound
≤ 150 nM	≤ 50 nM	COc1ncc(Cl)cc1C(=O)N(C)Cc1cccc(F)c1 [Example 24, 5-chloro-N-(3-fluorobenzyl)-2-methoxy-N-methylnicotinamide]
≤ 300 nM	≤ 200 nM	COc1ncc(F)cc1C(=O)N(C)Cc1ccc(F)cc1F [Example 39, N-(2,4-difluorobenzyl)-5-fluoro-2-methoxy-N-methylnicotinamide]
	≤ 500 nM	COc1ncc(F)cc1C(=O)N(C)C1CCc2ccc(F)cc21 (single isomer, unassigned) [Example 10, 5-fluoro-N-(6-fluoro-2,3-dihydro-1H-inden-1-yl)-2-methoxy-N-methylnicotinamide]
